The record followed here is PubChem BioAssay AID328 (DTP/NCI, 2004).

In the test the test system is BDF1 mice, P388 leukemia ip, median survival T/C. Put plainly: NCI In Vivo Anticancer Drug Screen. Data for tumor model P388 Leukemia (intraperitoneal) in B6D2F1 (BDF1) mice. The conditions noted are these: endpoint: median survival time, higher = longer survival. In a few lines:
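Antitumour effect was judged in vivo: survival in drug-treated mice, normalised to that of vehicle-dosed controls, gives the reported T/C.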

The mark [1] stands for this setting: dose: 2.5 mg/kg/injection, schedule: Q01DX009 (ip), vehicle: saline.
The mark [2] stands for this setting: dose: 5.0 mg/kg/injection, schedule: Q01DX009 (ip), vehicle: saline.
Setting [3] is: dose: 50.0 mg/kg/injection, schedule: Q01DX009 (ip), vehicle: saline.
Where [4] appears, read: dose: 100.0 mg/kg/injection, schedule: Q01DX001 (ip), vehicle: saline with Tween-80.
[5] abbreviates: dose: 100.0 mg/kg/injection, schedule: Q01DX009 (ip), vehicle: saline.
The mark [6] stands for this setting: dose: 200.0 mg/kg/injection, schedule: Q01DX001 (ip), vehicle: saline with Tween-80.
Where [7] appears, read: dose: 200.0 mg/kg/injection, schedule: Q01DX009 (ip), vehicle: saline.
[8] abbreviates: dose: 100.0 mg/kg/injection, schedule: Q01DX009 (ip), vehicle: saline with Tween-80.
Where [9] appears, read: dose: 200.0 mg/kg/injection, schedule: Q01DX009 (ip), vehicle: saline with Tween-80.
Where [10] appears, read: dose: 400.0 mg/kg/injection, schedule: Q01DX009 (ip), vehicle: saline with Tween-80.
The mark [11] stands for this setting: dose: 50.0 mg/kg/injection, schedule: Q01DX009 (ip), vehicle: saline with Tween-80.
Where [12] appears, read: dose: 12.5 mg/kg/injection, schedule: Q01DX009 (ip), vehicle: saline.

Values joined by “and” are separate entries in the source; they are usually repeats but may differ in a detail not shown here. Identical values can stand only once. Toxic doses and inconclusive results are not listed. Non-standard residues stand in square brackets, D forms with d. Residues, ends and D or L forms follow the SMILES beside them. ξ: configuration not given here. ξLac(3-iPr) = CC(C)CC(O)C(=O)O; NMeV = CN[CH](C(=O)O)C(C)C; NMeA = CN[CH](C)C(=O)O; βAla = NCCC(=O)O

For the compound `CCC(C)C1NC(=O)C2CCCN2C(=O)C(CC(C)C)OC(=O)CCNC(=O)C(C)N(C)C(=O)C(C(C)C)N(C)C1=O` (centres undefined) (cyclo([ξLac(3-iPr)]PI[NMeV][NMeA][βAla]); configuration not given here), the T/C (dose: 0.82 mg/kg/injection, schedule: Q01DX009 (ip), vehicle: saline) was 115 % of control; the T/C (dose: 1.25 mg/kg/injection, schedule: Q01DX009 (ip), vehicle: saline) is 91 % of control; the T/C (dose: 1.8 mg/kg/injection, schedule: Q01DX009 (ip), vehicle: saline) was 107 % of control; the T/C under setting [1] is 96 % of control; the T/C under setting [2] is 108 % of control; the T/C (dose: 10.0 mg/kg/injection, schedule: Q01DX009 (ip), vehicle: saline) is 104 % of control.

For the compound `O=C(O)c1ccc2cc(O)ccc2c1`, the T/C is 100 % of control (dose: 50.0 mg/kg/injection, schedule: Q01DX001 (ip), vehicle: saline with Tween-80); 116 % of control under setting [3]; 109 % of control (dose: 50.0 mg/kg/injection, schedule: Q04DX003 (ip), vehicle: saline); 113 % of control under setting [4]; 116 % of control under setting [5]; 109 % of control (dose: 100.0 mg/kg/injection, schedule: Q04DX003 (ip), vehicle: saline). The T/C runs as follows: under setting [6], 100 % of control; under setting [7], 104 % of control; (dose: 200.0 mg/kg/injection, schedule: Q04DX003 (ip), vehicle: saline) 100 % of control.

With `CC(=O)Nc1ccc2c(Nc3ccc(NS(C)(=O)=O)cc3)c3ccccc3nc2c1`, the T/C is 254 % of control (dose: 0.73 mg/kg/injection, schedule: Q01DX009 (ip), vehicle: saline); 163 % of control (dose: 0.88 mg/kg/injection, schedule: Q04DX003 (ip), vehicle: saline); 260 % of control (dose: 1.1 mg/kg/injection, schedule: Q01DX009 (ip), vehicle: saline); 195 % of control (dose: 1.32 mg/kg/injection, schedule: Q04DX003 (ip), vehicle: saline); 260 % of control (dose: 1.65 mg/kg/injection, schedule: Q01DX009 (ip), vehicle: saline); 200 % of control (dose: 2.0 mg/kg/injection, schedule: Q04DX003 (ip), vehicle: saline). The T/C runs as follows: under setting [1], 252 % of control and 262 % of control; (dose: 3.0 mg/kg/injection, schedule: Q04DX003 (ip), vehicle: saline) 195 % of control; under setting [2], 92 % of control; (dose: 5.56 mg/kg/injection, schedule: Q04DX003 (ip), vehicle: saline) 250 % of control; (dose: 5.6 mg/kg/injection, schedule: Q04DX003 (ip), vehicle: saline) 236 % of control; (dose: 8.3 mg/kg/injection, schedule: Q04DX003 (ip), vehicle: saline) 281 % of control. The T/C is 250 % of control (dose: 8.33 mg/kg/injection, schedule: Q04DX003 (ip), vehicle: saline); 250 % of control and 272 % of control and 281 % of control (dose: 12.5 mg/kg/injection, schedule: Q04DX003 (ip), vehicle: saline); 250 % of control and 277 % of control (dose: 18.7 mg/kg/injection, schedule: Q04DX003 (ip), vehicle: saline); 122 % of control (dose: 25.0 mg/kg/injection, schedule: Q04DX003 (ip), vehicle: saline); 104 % of control (dose: 18.0 micrograms/kg/injection, schedule: Q04DX003 (ip), vehicle: saline); 109 % of control (dose: 27.0 micrograms/kg/injection, schedule: Q04DX003 (ip), vehicle: saline). In addition, where the note is “dose: 40.0 micrograms/kg/injection, schedule: Q04DX003 (ip), vehicle: saline”, the T/C is 113 % of control.

Consider `Cn1cc(NC(=O)c2cc(NC(=O)c3cc(NC=O)cn3C)cn2C)cc1C(=O)NCCC(=N)N`, for which the T/C is, setting by setting: (dose: 110.0 mg/kg/injection, schedule: Q04DX003 (ip), vehicle: Klucel (hydroxypropylcellulose) (HPC)) 113 % of control; (dose: 170.0 mg/kg/injection, schedule: Q04DX003 (ip), vehicle: Klucel (hydroxypropylcellulose) (HPC)) 109 % of control; (dose: 255.0 mg/kg/injection, schedule: Q04DX003 (ip), vehicle: Klucel (hydroxypropylcellulose) (HPC)) 104 % of control.

Turning to `CC(=O)OCC(Br)C(Br)COC(C)=O` (centres undefined), the T/C is 109 % of control under setting [8], 109 % of control under setting [9] and 109 % of control under setting [10].

`O=c1c2ccccc2[nH]c2c([N+](=O)[O-])ccc(Oc3cccc(C(F)(F)F)c3)c12`: the T/C is 90 % of control (dose: 100.0 mg/kg/injection, schedule: Q04DX002 (ip), vehicle: saline with Tween-80); 102 % of control (dose: 200.0 mg/kg/injection, schedule: Q04DX002 (ip), vehicle: saline with Tween-80); 92 % of control (dose: 400.0 mg/kg/injection, schedule: Q04DX002 (ip), vehicle: saline with Tween-80).

In the case of `CCCCCCCCCCCCCCCCCCCCCCCCCCCC(=O)OCC(O)CO` (centres undefined), the T/C (dose: 0.25 mg/kg/injection, schedule: Q01DX009 (ip), vehicle: saline + alcohol) is 110 % of control and the T/C (dose: 1.0 mg/kg/injection, schedule: Q01DX009 (ip), vehicle: saline + alcohol) was 105 % of control.

As for `COc1ccc(/C=C/c2c[n+]([O-])ccc2[N+](=O)[O-])cc1`, the T/C runs as follows: under setting [11], 105 % of control; under setting [8], 109 % of control; under setting [9], 119 % of control.

As to `O=C(c1ccccc1)C(O)(CC(c1ccccc1)[P+](c1ccccc1)(c1ccccc1)c1ccccc1)c1ccccc1` (centres undefined), the T/C is 108 % of control (dose: 0.87 mg/kg/injection, schedule: Q01DX009 (ip), vehicle: saline); 122 % of control (dose: 3.12 mg/kg/injection, schedule: Q01DX009 (ip), vehicle: Klucel (hydroxypropylcellulose) (HPC)); 120 % of control (dose: 3.5 mg/kg/injection, schedule: Q01DX009 (ip), vehicle: saline); 113 % of control (dose: 6.25 mg/kg/injection, schedule: Q01DX009 (ip), vehicle: Klucel (hydroxypropylcellulose) (HPC)); 109 % of control (dose: 6.25 mg/kg/injection, schedule: Q04DX003 (ip), vehicle: saline with Tween-80); 104 % of control (dose: 12.5 mg/kg/injection, schedule: Q04DX003 (ip), vehicle: Klucel (hydroxypropylcellulose) (HPC)). In addition, for the setting “dose: 12.5 mg/kg/injection, schedule: Q04DX003 (ip), vehicle: saline with Tween-80”, the T/C was 118 % of control.

For the compound `CCOC(=O)c1cnc2ccc(OC)cc2c1Cl`, the T/C reads like this: under setting [11], 95 % of control; (dose: 50.0 mg/kg/injection, schedule: Q04DX003 (ip), vehicle: saline with Tween-80) 91 % of control; under setting [8], 111 % of control; (dose: 100.0 mg/kg/injection, schedule: Q04DX003 (ip), vehicle: saline with Tween-80) 103 % of control; under setting [9], 99 % of control; (dose: 200.0 mg/kg/injection, schedule: Q04DX003 (ip), vehicle: saline with Tween-80) 103 % of control. Further, the T/C was 96 % of control under setting [10] and 95 % of control (dose: 400.0 mg/kg/injection, schedule: Q04DX003 (ip), vehicle: saline with Tween-80).

In the case of `COCCCC/C(=N\OCCN)c1ccc(C(F)(F)F)cc1`, the T/C was 103 % of control under setting [3], 112 % of control under setting [5] and 108 % of control under setting [7].

For the compound `O=C(O)CC1(c2cccc3ccccc23)OC(=O)c2ccccc21` (centres undefined), the T/C reads like this: under setting [4], 112 % of control; under setting [6], 88 % of control; (dose: 400.0 mg/kg/injection, schedule: Q01DX001 (ip), vehicle: saline with Tween-80) 97 % of control.

In the case of `CC[N+](C)(C)Cc1ccccc1`, the T/C is, setting by setting: (dose: 6.25 mg/kg/injection, schedule: Q01DX009 (ip), vehicle: saline) 106 % of control; under setting [12], 106 % of control.

In the case of `N#Cc1ccccc1-n1c(=O)c2cc3c(=O)n(-c4ccccc4C#N)c(=O)c3cc2c1=O`, the T/C under setting [9] is 162 % of control.

Take `CCOC(=O)C(NC(C)=O)(C(=O)OCC)C(C)C(=O)c1ccc(OC)c(OC)c1OCc1ccccc1` (centres undefined): the T/C runs as follows: under setting [12], 101 % of control; (dose: 25.0 mg/kg/injection, schedule: Q01DX009 (ip), vehicle: saline) 111 % of control; under setting [3], 92 % of control; under setting [7], 101 % of control.

In the case of `O=C(Nc1ccccc1)OCCBr`, the T/C by setting is: under setting [11], 99 % of control; under setting [8], 107 % of control; under setting [9], 107 % of control.
